Source: PubChem BioAssay (NCI)
Where “and” joins values, the source holds several entries; their conditions need not be identical. Equal entries are not always repeated.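 A five-concentration, 48-hour dose response in 96-well plates underlies each endpoint, interpolated linearly between surrounding concentrations. Definition used: TGI = concentration required for complete inhibition of growth.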

How the values were obtained:
Assay in all cases: growth of human tumour cells (NCI), 48 h
[1] = system: 786-0 renal
[2] = system: A498 renal
[3] = system: A549 NSCLC
[4] = system: ACHN renal
[5] = system: CAKI-1 renal
[6] = system: COLO 205 colon
[7] = system: DLD-1 colon
[8] = system: DMS 114 small cell lung
[9] = system: DMS 273 small cell lung
[10] = system: EKVX NSCLC
[11] = system: HCC-2998 colon
[12] = system: HCT-116 colon
[13] = system: HCT-15 colon
[14] = system: HL-60(TB) leukemia
[15] = system: HOP-18 NSCLC
[16] = system: HOP-62 NSCLC
[17] = system: HOP-92 NSCLC
[18] = system: HT29 colon
[19] = system: IGROV1 ovarian
[20] = system: K-562 leukemia
[21] = system: KM12 colon
[22] = system: KM20L2 colon
[23] = system: LXFL 529 NSCLC
[24] = system: M14 melanoma
[25] = system: M19-MEL melanoma
[26] = system: MALME-3M melanoma
[27] = system: MOLT-4 leukemia
[28] = system: NCI-H226 lung
[29] = system: NCI-H23 lung
[30] = system: NCI-H460 lung
[31] = system: NCI-H522 lung
[32] = system: OVCAR-4 ovarian
[33] = system: OVCAR-5 ovarian
[34] = system: OVCAR-8 ovarian
[35] = system: RPMI-8226 leukemia
[36] = system: RXF 393 renal
[37] = system: SF-268 CNS
[38] = system: SF-295 CNS
[39] = system: SF-539 CNS
[40] = system: SK-MEL-2 melanoma
[41] = system: SK-MEL-28 melanoma
[42] = system: SK-MEL-5 melanoma
[43] = system: SK-OV-3 ovarian
[44] = system: SN12C renal
[45] = system: SNB-19 CNS
[46] = system: SNB-75 CNS
[47] = system: SNB-78 CNS
[48] = system: SW-620 colon
[49] = system: TK-10 renal
[50] = system: U251 CNS
[51] = system: UACC-257 melanoma
[52] = system: UACC-62 melanoma
[53] = system: UO-31 renal
[54] = system: XF 498 CNS

Brc1ccc(N2C[N+](c3ccc(Br)cc3)=NC(c3ccccc3)=N2)cc1
TGI [1]: 29.5 µM and > 100 µM
TGI [2]: 32.8 µM and > 100 µM
TGI [3]: 33.6 µM and > 100 µM
TGI [4]: 26.4 µM and > 100 µM
TGI [5]: 33.3 µM and > 100 µM
TGI [6]: 33.7 µM and > 100 µM
TGI [7]: 25.2 µM and > 100 µM
TGI [8]: 34.7 µM and 97.8 µM
TGI [9]: 21.1 µM and > 100 µM
TGI [10]: 31.8 µM and > 100 µM
TGI [11]: 28.7 µM and > 100 µM
TGI [12]: 32.9 µM and > 100 µM
TGI [13]: 33.5 µM and > 100 µM
TGI [14]: 35.2 µM and > 100 µM
TGI [15]: 28 µM and > 100 µM
TGI [16]: 31.2 µM and > 100 µM
TGI [17]: 34.1 µM and > 100 µM
TGI [18]: 27.8 µM and > 100 µM
TGI [19]: 29.1 µM and > 100 µM
TGI [20]: 32.8 µM and > 100 µM
TGI [21]: 28.1 µM and > 100 µM
TGI [22]: 33.8 µM and > 100 µM
TGI [23]: 23 µM and > 100 µM
TGI [24]: 26.2 µM and > 100 µM
TGI [25]: 29.7 µM and > 100 µM
TGI [26]: 31.2 µM and > 100 µM
TGI [27]: 32.5 µM and > 100 µM
TGI [28]: 44.4 µM and > 100 µM
TGI [29]: 31.7 µM and > 100 µM
TGI [30]: 29.5 µM and > 100 µM
TGI [31]: 36.4 µM and > 100 µM
TGI [32]: 35.3 µM and > 100 µM
TGI [33]: 30.2 µM and > 100 µM
TGI [34]: 41.9 µM and > 100 µM
TGI [35]: 27.7 µM and > 100 µM
TGI [36]: 37.7 µM and > 100 µM
TGI [37]: 35.8 µM and > 100 µM
TGI [38]: 29.1 µM and > 100 µM
TGI [39]: 29.8 µM and > 100 µM
TGI [40]: 32.6 µM and > 100 µM
TGI [41]: 39.2 µM and > 100 µM
TGI [42]: 29.4 µM and > 100 µM
TGI [43]: 34.3 µM and > 100 µM
TGI [44]: 33.3 µM and > 100 µM
TGI [45]: 32.6 µM and > 100 µM
TGI [46]: 48.4 µM and > 100 µM
TGI [47]: 70.6 µM and > 100 µM
TGI [48]: 40.9 µM and > 100 µM
TGI [49]: 38 µM and > 100 µM
TGI [50]: 33.5 µM and > 100 µM
TGI [51]: 31.3 µM and > 100 µM
TGI [52]: 28.2 µM and > 100 µM
TGI [53]: 27.6 µM and > 100 µM
TGI [54]: 35.5 µM and > 100 µM

CC(C)(CN1CCCCC1)C(=O)CC(SCCS(=O)(=O)O)c1ccc(Br)cc1 (stereo not given)
TGI [1]: 2.71 µM
TGI [2]: 5.73 µM
TGI [3]: 4.78 µM
TGI [4]: 3.1 µM
TGI [5]: 7.2 µM
TGI [6]: 2.82 µM
TGI [7]: 5.73 µM
TGI [8]: 3.46 µM
TGI [9]: 3.58 µM
TGI [10]: 6.51 µM
TGI [11]: 4.55 µM
TGI [12]: 3.04 µM
TGI [13]: 6.91 µM
TGI [15]: 3.57 µM
TGI [16]: 18 µM
TGI [17]: 2.08 µM
TGI [18]: 3.72 µM
TGI [19]: 4.56 µM
TGI [20]: 8.63 µM
TGI [21]: 5.36 µM
TGI [22]: 3.53 µM
TGI [23]: 2.7 µM
TGI [24]: 3.54 µM
TGI [25]: 5.05 µM
TGI [26]: 3.38 µM
TGI [27]: 7.62 µM
TGI [28]: 8.75 µM
TGI [29]: 5.9 µM
TGI [30]: 4.48 µM
TGI [31]: 2.9 µM
TGI [32]: 4.06 µM
TGI [33]: 9.34 µM
TGI [34]: 5.96 µM
TGI [35]: 4.66 µM
TGI [36]: 2.71 µM
TGI [37]: 5.48 µM
TGI [38]: 16.7 µM
TGI [39]: 3.96 µM
TGI [40]: 4.37 µM
TGI [41]: 8.7 µM
TGI [42]: 3.32 µM
TGI [44]: 2.97 µM
TGI [45]: 5.44 µM
TGI [46]: 6.16 µM
TGI [47]: 77.7 µM
TGI [49]: 7.97 µM
TGI [50]: 3.16 µM
TGI [51]: 11.5 µM
TGI [52]: 3.69 µM
TGI [53]: 2.99 µM
TGI [54]: 2.07 µM
